{
  "source": "patent US20230077362A1",
  "about": "(CORTEVA AGRISCIENCE LLC, priority 2019, published 2023)",
  "type_in_all_cases": "in vivo",
  "key": {"[1]": {"tested_on": "Beet Armyworm (Spodoptera exigua) (\"BAW\"), second instar larvae", "experiment": "Bioassay on beet armyworm (BAW), 128-well diet tray assay", "conditions": "Spodoptera exigua", "how_it_was_run": "(§1)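 Each value represents average percent mortality from eight wells. Larvae were kept in clear-covered trays at 25° C. for five to seven days on a 14-hour light, 10-hour dark schedule before scoring.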"}, "[2]": {"tested_on": "Cabbage Looper (Trichoplusia ni) (\"CL\"), second instar larvae", "experiment": "Bioassay on cabbage looper (CL), 128-well diet tray assay", "conditions": "Trichoplusia ni", "how_it_was_run": "as §1"}, "[3]": {"tested_on": "Yellow Fever Mosquito \"YFM\" (Aedes aegypti), about 1 day-old larvae", "experiment": "Bioassay on yellow fever mosquito (YFM), 96-well plate larval assay", "conditions": "for YFM rating: Table ABC, species YFM, mortality scored after 3 days, C = not tested, D = no activity noticed", "experimental": "Example C: Bioassays on Yellow Fever Mosquito “YFM” (Aedes aegypti)\nCertain molecules disclosed in this document were tested against YFM using procedures described in the following paragraph. In the reporting of the results, the “YFM Rating Table” was used (See Table Section).\nMaster plates containing 400 μg of a molecule dissolved in 100 μL of dimethyl sulfoxide (DMSO) (equivalent to a 4000 ppm solution) are used. A master plate of assembled molecules contains 15 μL per well. To this plate, 135 μL of a 90:10 water:acetone mixture is added to each well. A robot (Biomek® NXP Laboratory Automation Workstation) is programmed to dispense 15 μL aspirations from the master plate into an empty 96-well shallow plate (“daughter” plate). There are 6 reps (“daughter” plates) created per master. The created daughter plates are then immediately infested with YFM larvae.\nThe day before plates are to be treated, mosquito eggs are placed in Millipore water containing liver powder to begin hatching (4 g. into 400 mL). After the daughter plates are created using the robot, they are infested with 220 μL of the liver powder/larval mosquito mixture (about 1 day-old larvae). After plates are infested with mosquito larvae, a non-evaporative lid is used to cover the plate to reduce drying. Plates are held at room temperature for 3 days prior to grading. After 3 days, each well is observed and scored based on mortality."}},
  "note": "Read-outs that look alike come from different tables or passages of the source.",
  "data": [
    {"compound": "Cc1ccc(Cc2ccc(F)cc2)c(N2C(=O)CS/C2=N\\C(=O)Nc2ccc(-c3ncn(-c4ccc(C(F)(F)F)cc4)n3)cc2F)c1", "note": "[Compound J673, (Z)-1-(2-Fluoro-4-(1-(4-(trifluoromethyl)phenyl)-1H-1,2,4-triazol-3-yl)phenyl)-3-(3-(2-(4-fluorobenzyl)-5-methylphenyl)-4-oxothiazolidin-2-ylidene)urea]", "values": [
      {"measurement": "pest or weed control at 50 µg/cm2", "setting": "[1]; read-out: BAW rating", "value": "50 to 100", "unit": "%"},
      {"measurement": "pest or weed control at 50 µg/cm2", "setting": "[2]; read-out: CL rating", "value": "50 to 100", "unit": "%"},
      {"measurement": "YFM rating", "setting": "[3]", "value": "A (80-100)"}
    ]},
    {"compound": "Cc1ccc([N+](=O)[O-])c(N2C(=O)CS/C2=N\\C(=O)Nc2ccc(-c3ncn(-c4ccc(OC(F)(F)F)cc4)n3)cc2)c1", "note": "[Compound J313, (Z)-1-(3-(5-Methyl-2-nitrophenyl)-4-oxothiazolidin-2-ylidene)-3-(4-(1-(4-(trifluoromethoxy)phenyl)-1H-1,2,4-triazol-3-yl)phenyl)urea]", "values": [
      {"measurement": "pest or weed control at 50 µg/cm2", "setting": "[1]; read-out: BAW (Biological Results, rating)", "value": "50 to 100", "unit": "%"},
      {"measurement": "pest or weed control at 50 µg/cm2", "setting": "[2]; read-out: CL (Biological Results, rating)", "value": "50 to 100", "unit": "%"},
      {"measurement": "YFM (Biological Results, rating)", "setting": "[3]; Yellow Fever Mosquito (Aedes aegypti) larvae, scored on mortality after 3 days, C = Not Tested", "value": "B (More than 0-Less than 80)"}
    ]},
    {"compound": "Cc1ccc(COCC(F)(F)F)c(N2C(=O)CS/C2=N\\C(=O)Nc2ccc(-c3ncn(-c4ccnc(OCC(F)(F)F)c4)n3)cc2F)c1", "note": "[Compound J750, (Z)-1-(2-Fluoro-4-(1-(2-(2,2,2-trifluoroethoxy)pyridin-4-yl)-1H-1,2,4-triazol-3-yl)phenyl)-3-(3-(5-methyl-2-((2,2,2-trifluoroethoxy)methyl)phenyl)-4-oxothiazolidin-2-ylidene)urea]", "values": [
      {"measurement": "pest or weed control at 50 µg/cm2", "setting": "[1]; read-out: BAW rating", "value": "50 to 100", "unit": "%"},
      {"measurement": "pest or weed control at 50 µg/cm2", "setting": "[2]; read-out: CL rating", "value": "50 to 100", "unit": "%"},
      {"measurement": "YFM rating", "setting": "[3]", "value": "A (80-100)"}
    ]},
    {"compound": "Cc1ccc(COCc2cc3c(C(F)(F)F)nn(C)c3s2)c(N2C(=O)CS/C2=N\\C(=O)Nc2ccc(-c3ncn(-c4ccc(OC(F)(F)F)cc4)n3)cc2F)c1", "note": "[Compound J712, (Z)-1-(2-Fluoro-4-(1-(4-(trifluoromethoxy)phenyl)-1H-1,2,4-triazol-3-yl)phenyl)-3-(3-(5-methyl-2-(((1-methyl-3-(trifluoromethyl)-1H-thieno[2,3-c]pyrazol-5-yl)methoxy)methyl)phenyl)-4-oxothiazolidin-2-ylidene)urea]", "values": [
      {"measurement": "pest or weed control at 50 µg/cm2", "setting": "[1]; read-out: BAW rating", "value": "50 to 100", "unit": "%"},
      {"measurement": "pest or weed control at 50 µg/cm2", "setting": "[2]; read-out: CL rating", "value": "50 to 100", "unit": "%"},
      {"measurement": "YFM rating", "setting": "[3]", "value": "A (80-100)"}
    ]},
    {"compound": "Cc1ccc(Cc2ccccc2F)c(N2C(=O)CS/C2=N\\C(=O)Nc2ccc(-c3ncn(-c4ccc(C(F)(F)F)cc4)n3)cc2F)c1", "note": "[Compound J708, (Z)-1-(2-Fluoro-4-(1-(4-(trifluoromethyl)phenyl)-1H-1,2,4-triazol-3-yl)phenyl)-3-(3-(2-(2-fluorobenzyl)-5-methylphenyl)-4-oxothiazolidin-2-ylidene)urea]", "values": [
      {"measurement": "pest or weed control at 50 µg/cm2", "setting": "[1]; read-out: BAW rating", "value": "50 to 100", "unit": "%"},
      {"measurement": "pest or weed control at 50 µg/cm2", "setting": "[2]; read-out: CL rating", "value": "50 to 100", "unit": "%"},
      {"measurement": "YFM rating", "setting": "[3]", "value": "A (80-100)"}
    ]},
    {"compound": "O=C(/N=C1\\SCC(=O)N1c1ccccc1-c1ccccc1)Nc1ccc(-c2ncn(-c3ccc(OC(F)(F)F)cc3)n2)cc1F", "note": "[Compound J720, (Z)-1-(3-([1,1′-Biphenyl]-2-yl)-4-oxothiazolidin-2-ylidene)-3-(2-fluoro-4-(1-(4-(trifluoromethoxy)phenyl)-1H-1,2,4-triazol-3-yl)phenyl)urea]", "values": [
      {"measurement": "pest or weed control at 50 µg/cm2", "setting": "[1]; read-out: BAW rating", "value": "50 to 100", "unit": "%"},
      {"measurement": "pest or weed control at 50 µg/cm2", "setting": "[2]; read-out: CL rating", "value": "50 to 100", "unit": "%"},
      {"measurement": "YFM rating", "setting": "[3]", "value": "A (80-100)"}
    ]},
    {"compound": "Cc1ccc(COCc2ccccc2Cl)c(N2C(=O)CS/C2=N\\C(=O)Nc2ccc(-c3ncn(-c4ccc(OC(F)(F)F)cc4)n3)cc2F)c1", "note": "[Compound J572, (Z)-1-(3-(2-(((2-Chlorobenzyl)oxy)methyl)-5-methylphenyl)-4-oxothiazolidin-2-ylidene)-3-(2-fluoro-4-(1-(4-(trifluoromethoxy)phenyl)-1H-1,2,4-triazol-3-yl)phenyl)urea]", "values": [
      {"measurement": "pest or weed control at 50 µg/cm2", "setting": "[1]; read-out: BAW rating", "value": "50 to 100", "unit": "%"},
      {"measurement": "pest or weed control at 50 µg/cm2", "setting": "[2]; read-out: CL rating", "value": "50 to 100", "unit": "%"},
      {"measurement": "YFM rating", "setting": "[3]", "value": "A (80-100)"}
    ]},
    {"compound": "Cc1ccc(Cc2cccc(F)c2)c(N2C(=O)CS/C2=N\\C(=O)Nc2ccc(-c3ncn(-c4ccc(C(F)(F)F)cc4)n3)cc2F)c1", "note": "[Compound J675, (Z)-1-(2-Fluoro-4-(1-(4-(trifluoromethyl)phenyl)-1H-1,2,4-triazol-3-yl)phenyl)-3-(3-(2-(3-fluorobenzyl)-5-methylphenyl)-4-oxothiazolidin-2-ylidene)urea]", "values": [
      {"measurement": "pest or weed control at 50 µg/cm2", "setting": "[1]; read-out: BAW rating", "value": "50 to 100", "unit": "%"},
      {"measurement": "pest or weed control at 50 µg/cm2", "setting": "[2]; read-out: CL rating", "value": "50 to 100", "unit": "%"},
      {"measurement": "YFM rating", "setting": "[3]", "value": "A (80-100)"}
    ]}
  ]
}
